Source: US20260284076A1, “TESTOSTERONE AND DIFLUOROMETHYLORNITHINE COMBINATION THERAPY FOR PROSTATE CANCER” (The Johns Hopkins University, priority 2023, published 2026)
Like-named read-outs stand apart in the source and are kept apart here.

Legend:
patients with CRPC [1] = assay: Plasma putrescine in patients treated with BAT (COMBAT trial); details: human, in vivo
Description: (§1) Vinculin was used as a loading control. FIG. 2F, Polyamine synthesis pathway.

[2] = system: patients with CRPC progressing on Enza (Cohort A) or Abi (Cohort B); assay type: in vivo, human
Description: The RESTORE study (NCT02090114) was an NIH sponsored Phase II study designed to assess the safety and efficacy of BAT in patients (n=30 per cohort) with CRPC progressing on Enza (Cohort A) or Abi (Cohort B), FIG. 18A (34,39). The primary endpoint of the first part of the study was to assess PSA response to BAT. Secondary endpoints included objective response, safety, and quality of life. The second part of the study was to determine in BAT could re-sensitize patients to repeat exposure to second line therapy that patients were progressing on prior to receiving BAT. Thus, patients progressing on Enza were re-exposed to Enza after BAT and similarly for Abi. Both arms of this study met the primary endpoint. PSA50 response to BAT was 30% in patient's post-Enza and 18% post-Abi, FIG. 18B. […] Overall duration of response to BAT and duration of response to re-exposure was longer in the post-Enza vs. post-Abi cohort. The PSAso response to re-exposure to Enza was 71% vs. only 21% for patients re-exposed to Abi, FIG. 19B (7). A third cohort was later added (Cohort C) for patients progressing on ADT alone. Overall, 90 patients were treated on this study over a 4-year period (2014-2018).

[3] = system: chronically castrated patients with rising PSA and CRPC; assay: Pilot study of BAT with oral etoposide, then second line therapy post-BAT; assay type: in vivo, human; details: for PSA decline upon re-challenge: agent previously progressed on
Description: Based on the preclinical results and potential mechanisms for growth inhibition that include androgen-induced double strand breaks and stabilization of AR preventing relicensing, we have conducted a pilot study evaluating the efficacy and safety of pharmacologic doses of testosterone to produce high dose T levels in conjunction with oral etoposide in chronically castrated patients with rising PSA and CRPC (37). Patients who had been continuously castrate for more than one year with minimal metastatic disease burden (≤5 total bone metastases and ≤10 total sites of metastases) and/or rising PSA were eligible. To achieve rapid cycling between high dose and near castrate serum T (i.e., BAT) patients received intramuscular injection of 400 mg testosterone cypionate every 28 days. For the first 3 cycles of therapy patients received BAT plus oral etoposide 100 mg po/day days 1-14 of a 28-day cycle. After 3 cycles PSA response and objective response were assessed. Those patients with a PSA that was declining from peak levels and no objective evidence of disease progression or worsening pain were continued on therapy. Given the toxicity associated with etoposide and the lack of clinical response in an earlier trial (38), patients who responded after 3 cycles of testosterone plus etoposide were continued on testosterone alone based on protocol amendment.

[4] = system: asymptomatic patients with CRPC progressing on Abi; assay: TRANSFORMER randomized Phase II study, BAT vs. Enza with crossover; assay type: in vivo, human
Method: The TRANSFORMER study (NCT02286921) was a DOD-sponsored randomized Phase II study designed to compare the efficacy of BAT vs. Enza in asymptomatic patients with CRPC progressing on Abi, FIG. 19A (2). The study was conducted at 17 academic centers across the US. The study was coordinated by the Prostate Cancer Disease Group clinical research team at Johns Hopkins, who performed regulatory oversight, study/site monitoring, and data analyses. From 2015-2018, 195 patients underwent 1:1 randomization to either standard dose Enza (n=101) or BAT (n=94) at 400 mg IM every 28 days. The primary endpoint was clinical/radiographic PFS. At time of progression, patients were given the option to crossover to the alternate therapy. The trial was designed to show a 50% improvement in the primary endpoint for BAT vs. Enza. […] Objective response was 24.4% for BAT and 4.2% for Enza (p=0.067). Best PSA50 was 26.4% for BAT and 25.5% for Enza (p=0.697).
At time of progression, 46 (49%) of patients on the Enza arm crossed over to receive BAT and 34 (33.7%) crossed over from BAT to receive Enza and were available for analysis. Remarkably, the PSAso response for patients who received Enza after BAT was 72.7% compared to 25.5% for patients receiving Enza immediately after Abi, FIG. 19D. Objective response in the Enza post-BAT patients was 28.6% compared to 4.2% post-Abi, FIG. 19B. […] The logical extension of these findings and the hypothesis of this proposal is that patients are likely to respond again to further repeat cycles of BAT and Enza, but this treatment strategy has yet to be explored in the clinical trial setting.

patients with CRPC [5] = assay: BAT clinical studies, overall experience; assay type: in vivo, human
Description: A major driver of castration resistance is the adaptive upregulation of AR activity, often through AR protein overexpression, to a sufficient level to allow for renewed growth. This marked overexpression of AR makes PCa cells once again vulnerable to hormone shock, achieved not through further androgen blockade, but through exposure to supraphysiologic levels of androgen (SPA). Based on extensive preclinical studies, we developed Bipolar Androgen Therapy (BAT), which involves cyclic administration of SPA as treatment for CRPC.
Inhibition of signaling through the androgen receptor (AR) is the mainstay of treatment of advanced PCa. […] This phase of the disease is associated with poor prognosis and limited therapeutic options. The majority of PCas are addicted to signaling through AR and adaptively upregulate AR-activity, via mechanisms such as AR overexpression, to permit sustained AR signaling despite castration and AR inhibitors (1,2). Studies dating back nearly thirty years indicate that high expression of AR induced by prolonged castration becomes a vulnerability of CRPC cells in vitro and in mouse xenografts to supraphysiological androgen (SPA), which induces cell death and growth arrest in this context (3,4). On the basis of these studies, we developed an innovative treatment called Bipolar Androgen Therapy (BAT) for patients with CRPC, in which SPA is administered intermittently to result in cycling of serum testosterone from supraphysiological to near castrate levels. This rapid cycling is intended to reduce adaptation AR regulation associated with chronic exposure to high or low levels of testosterone, while simultaneously targeting the spectrum of AR expression present in heterogeneous CRPC tumors (5). We have now tested BAT in more than 350 patients with CRPC (6-10).

MYC = MYC expression in metastatic tumor biopsies before and after BAT; assay type: in vivo, human; details: responding patients
Description: (§2) FIG. 5A, FIG. 5B, FIG. 5C, FIG. 5D, and FIG. 5E show: FIG. 5A, MYC expression by IHC in a metastatic tumor biopsy from a patient before and after 3 months of BAT. FIG. 5B, Quantification of MYC protein expression from metastatic tumor biopsies from patients before and after 3 months of BAT color-coded by response (non-responder NR; responder R). […] Vinculin was used as a loading control. FIG. 5D, Principal component analysis of RNA and ATAC sequencing of LNCaP cells treated for 5 days with R1881 10 nM (SPA). […] Vinculin was used as a loading control;

[6] = system: SKCaP-1R patient-derived xenograft tumors; assay: Global metabolomics of SKCaP-1R tumors; assay type: in vivo, castrated NSG mice; details: 14 days of treatment
[7] = system: patients with advanced CRPC, long-term castrates; details: cited from earlier work
patients with CRPC [8] = details: cited from earlier work
[9] = system: patients with early CRPC (rising PSA and minimal bone disease); details: cited from earlier work
[10] = system: MYC in LNCaP and VCaP cells; assay: MYC expression by western blot, RT-PCR, RNAseq; assay type: cell-based, human; details: to the level of SPA monotherapy
Description: as §2

VCaP cells = assay: Colony formation (clonal survival); assay type: cell-based, human; details: Homo sapiens, VCaP; 0.5 nM
Description: (§3) FIG. 3A. […] Ns, not significant. FIG. 3B. […] Ns, not significant. FIG. 3C. […] P values by ANOVA;

LNCaP cells [11] = assay: Colony formation (clonal survival); assay type: cell-based, human; details: Homo sapiens, LNCaP; 0.5 nM
Description: as §3

LNCaP cells [12] = assay: Putrescine abundance by HPLC in cells and media; assay type: cell-based, human; details: 10 nM
Description: as §1

Structure (SMILES): C[C@]12CC[C@H]3[C@@H](CCC4=CC(=O)CC[C@@]43C)[C@@H]1CC[C@@H]2OC(=O)CCC1CCCC1 [BAT, androst-4-en-3-one, 17-(3-cyclopentyl-1-oxopropoxy)-, (17ß)-]
- plasma putrescine abundance (patients with CRPC [1]): increased
- QoL surveys (FACIT Fatigue, IIEF, SF-36 subscales) ([2]; BAT compared to baseline on ADT): significant improvement
- Adverse events to BAT, grade ([2]; in vivo): primarily Grade 1-2
- patients with grade 3 hypertension attributed to BAT ([2]; in vivo): 3 patients
- PSA50 response to BAT ([2]; post-Abi (Cohort B)): 18%
- PSA50 response to BAT ([2]; post-Enza (Cohort A)): 30%
- subjects experiencing an AE ([3]; BAT monotherapy phase): four
- patients developing new bone metastases ([3]; completing 3 months of therapy): None of the 14 patients
- AEs during BAT monotherapy phase ([3]; in vivo): rare and low grade
- new pain, skeletal events or urinary obstruction due to prostate cancer ([3]; in vivo): None of the 14 patients
- patients with decline in PSA from baseline ([3]; in vivo): Seven of fourteen
- PSA decline/response and objective responses, patients ([3]; patients who completed three cycles): 50%
- median time to PSA progression ([3]; seven patients with PSA decline, range 95 to 454 days): 221 days
- complete response (CR) ([3]; ten RECIST-evaluable subjects): 10%
- partial responses (PRs) ([3]; ten RECIST-evaluable subjects): 40%
- stable disease ([3]; ten RECIST-evaluable subjects, median follow up 91 days): 30%
- progressive disease (PD) ([3]; ten subjects with RECIST-evaluable soft tissue metastases): 20%
- PSA50 response ([4]; BAT after Enza (crossover)): 22.2%
- PSA50 response ([4]; initial treatment immediately after Abi, no prior crossover): 26.4%
- clinical/radiographic PFS ([4]; randomized arms): 5.62 m
- Objective response ([4]; randomized arms, post-Abi): 24.4%
- PSA50 response rate (patients with CRPC [5]; 56 days of BAT monotherapy, mCRPC): approximately 25%
- PSA50 response rate (patients with CRPC [5]; 64 days of BAT monotherapy, mCRPC): approximately 25%
- PSA/objective (biochemical and objective) response (patients with CRPC [5]; human, in vivo): 20-30%
- quality of life (patients with CRPC [5]; human, in vivo): improved quality of life
- objective response rate (patients with CRPC [5]; mCRPC, monotherapy): approximately 30%
- MYC expression in tumor biopsies (MYC): decreased

Structure (SMILES): C[C@]12CC[C@H]3[C@@H](CCC4=CC(=O)CC[C@@]43C)[C@@H]1CC[C@@H]2O [testosterone]
- abundance of polyamine precursors ornithine and SAM in tumors [6]: decreased
- abundance of polyamines putrescine and spermine in tumors [6]: increased
- clinical improvement (pain, prostate size, phosphatases) ([7]; Brendler et al. 1949, parenteral): considerable improvement in several patients
- patients with subjective improvement ([7]; long-term castrate group, at least one month): 4 of 5
- patients with decline of acid phosphatase ([7]; longer course of testosterone): 2/5

Structure (SMILES): CC(O)(CS(=O)(=O)c1ccc(F)cc1)C(=O)Nc1ccc(C#N)c(C(F)(F)F)c1 (stereo not shown) [bicalutamide]
- PSA decline upon re-challenge ([3]; post-BAT): 30.9%

Structure (SMILES): CC1(C)NC(=O)N(c2ccc([N+](=O)[O-])c(C(F)(F)F)c2)C1=O [nilutamide]
- PSA decline upon re-challenge ([3]; post-BAT): 44.3%

Structure (SMILES): C[C@]12CC[C@H]3[C@@H](CCC4=CC(=O)CC[C@@]43C)[C@@H]1CC[C@@H]2O [transdermal T]
- grade 3 or 4 toxicities, pain flares (patients with CRPC [8]; 7.5 mg/day): no grade 3 or 4 toxicities and no pain flares
- objective responses (patients with CRPC [8]; 7.5 mg/day): No objective responses
- patients with >50% PSA decline (patients with CRPC [8]; 12 patients): one
- patients with at least 20% PSA declines (patients with CRPC [8]; 12 patients): Four
- median concentration of T ([9]; 2.5 mg/day transdermal): 305 ng/dL
- median concentration of T ([9]; 5.0 mg/day transdermal): 308 ng/dL
- median concentration of T ([9]; 7.5 mg/day transdermal): 297 ng/dL
- patients with a decrease in PSA ([9]; 15 patients): 20%
- grade 3 or 4 toxicities ([9]; in vivo): no grade 3 or 4 toxicities were observed with the exception of one person
- largest decrease in PSA ([9]; in vivo): 43%
- patients with symptomatic progression ([9]; in vivo): one

Structure (SMILES): C[S+](CC[C@H](N)C(=O)O)C[C@H]1O[C@@H](n2cnc3c(N)ncnc32)[C@H](O)[C@@H]1O (stereo partly shown) [SAM, S-adenosylmethionine]
- rescue of MYC in cells treated with SPA and DFMO [10]: sufficient to rescue MYC

Structure (SMILES): C[C@]12CC[C@H](O)CC1=CC[C@@H]1[C@@H]2CC[C@]2(C)C(c3cccnc3)=CC[C@@H]12 [Abi]
- PSA50 response to re-exposure (re-challenge) post-BAT ([2]; re-exposed to agent progressed on before BAT): 21%
- patients with >50% PSA decline on second line therapy ([3]; post-BAT): Four of 4

Structure (SMILES): N=C(N)c1cccc2c1CC/C2=N\N=C(N)N [SAM486]
- rescue of MYC in cells treated with SPA and DFMO [10]: phenocopied

Structure (SMILES): C[C@]1(O)CC[C@H]2[C@@H]3CCC4=CC(=O)CCC4=C3C=C[C@@]21C [R1881, 17α-methyl-19-nor-δ9,11-testosterone]
- inhibition at 0.0005 µM (VCaP cells): ~15%
- inhibition at 0.0005 µM (LNCaP cells [11]): ~15%
- putrescine, intracellular and extracellular (LNCaP cells [12]): Marked intracellular and extracellular accumulation
